US20050203065A1, “Method of treating ischemia reperfusion injury using adenosine receptor antagonists” (priority 2002, published 2005)
Read-outs that look alike come from different tables or passages of the source.

Tests used:
[1] = test system: open-chest, barbital-anesthetized dogs; experiment: Protocol III (reperfusion): 60 minutes occlusion and 3 hours reperfusion, drug from 10 minutes before release of occlusion, dogs; format: in vivo, dog; settings: for Infarct size expressed as a percentage of the risk region, in words: administration during the early phase of reperfusion
Procedure: (§2) The studies were performed in open-chest, barbital-anesthetized dogs instrumented to measure heart rate, blood pressure, left ventricular pressure, and regional myocardial blood flow (radioactive microspheres). A mechanical occluder was placed around a proximal portion of the left anterior descending coronary artery to produce ischemia and reperfusion. At the end of the experiments, infarct size was determined-by histochemical staining (patent blue dye and triphenyltetrazolium) and expressed as a percentage of the region at risk or as a percentage of the entire left ventricle.
In the reperfusion protocol (see FIG. 3, protocol III), the dogs were subjected to 60 minutes of coronary artery occlusion followed by three hours of reperfusion. […] The antagonists were administered at a dose of 1 mg/kg i.v. bolus followed by an infusion of 10 μg/kg/min for one hour.

[2] = test system: open-chest, barbital-anesthetized dogs; experiment: Protocol I (pretreatment): 60 minutes of coronary artery occlusion and 3 hours of reperfusion in dogs
Procedure: as §2
In the pretreatment protocol (see FIG. 1, protocol I), the dogs were subjected to 60 minutes of coronary artery occlusion and 3 hours or reperfusion after which the hearts were removed and infarct size was assessed. […] All of the antagonists were administered at a dose of 1 mg/kg as an i.v. bolus followed by and infusion of 10 μg/kg/min continued until immediately before reperfusion (70 minutes total).

[3] = target: T1, recombinant canine A1 adenosine receptors (Canis lupus familiaris, UniProt P11616); experiment: Radioligand competition binding, canine A1 receptor (3H-CPX), transfected HEK 293 membranes
T1 construct: expressed in transfected cells
T1 sequence (P11616 1-326): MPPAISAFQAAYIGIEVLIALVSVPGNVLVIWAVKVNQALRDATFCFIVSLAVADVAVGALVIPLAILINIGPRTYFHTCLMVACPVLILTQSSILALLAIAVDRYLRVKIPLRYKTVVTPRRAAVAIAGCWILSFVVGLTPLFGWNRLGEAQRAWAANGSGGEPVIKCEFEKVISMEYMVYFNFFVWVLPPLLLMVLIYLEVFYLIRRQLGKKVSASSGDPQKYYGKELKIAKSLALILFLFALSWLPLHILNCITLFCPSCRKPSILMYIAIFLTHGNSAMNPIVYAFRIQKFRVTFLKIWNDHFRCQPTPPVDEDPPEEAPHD
Procedure: (§1) Membranes (40-70 μg membrane protein), radioligands, and varying concentrations of competing ligands were incubated in triplicate in 0.1 ml buffer HE plus 2 units/mL adenosine deaminase for 2.5 hours at 21° C. The radioligands used for competitive binding assays were: [^3H]-8-cyclopentyl-1,3-dipropyxanthine ([^3H]-DPCPX) (NEN, Boston, Mass.) for A1 and A2b adenosine receptors, [^3H]-4-(2-[7-amino-2-(furyl)(1,2,4)triazole(2,3-a)(1,3,5)triazin-5-ylaminoethyly)phenol ([^3H] ZM241385) for A2a adenosine receptors (Tocris, Bristol, UK), and [^125Iodine]-labeled N6-(4-aminobenzyl)-9-(5-(methylcarbonyl)-β-D-ribofuranosyl) adenine ([^125I]-AB-MECA) or [^3H]-R-N^6-phenylisopropyladenosine (H^3R]-R-PIA) for A3 adenosine receptors (both from NEN, Boston, Mass.). Nonspecific binding was measured in the presence of 10 μM 5′N ethylcarboxamidoadenosine (NECA, from RBI-Sigma, Natick, Mass.) for A1 and A2b receptors, or 10 μM xanthine amino congener (XAC, from RBI-Sigma, Natick, Mass.) for A2a receptors. Binding assays were terminated by filtration over Whatman GF/C glass fiber filters using a BRANDEL cell harvester (Gaithersburg, Md.).

[4] = target: T2, recombinant human A3 adenosine receptors (Homo sapiens, UniProt P0DMS8); experiment: Radioligand binding, human A3 receptor ([125I]-AB-MECA), incl. one-point binding at 10 μM; settings: read-out: Percent (%) Inhibition at 10 μM Antagonist, A3
T2 construct: expressed in transfected cells; host or cells: HEK 293
T2 sequence (P0DMS8 1-318): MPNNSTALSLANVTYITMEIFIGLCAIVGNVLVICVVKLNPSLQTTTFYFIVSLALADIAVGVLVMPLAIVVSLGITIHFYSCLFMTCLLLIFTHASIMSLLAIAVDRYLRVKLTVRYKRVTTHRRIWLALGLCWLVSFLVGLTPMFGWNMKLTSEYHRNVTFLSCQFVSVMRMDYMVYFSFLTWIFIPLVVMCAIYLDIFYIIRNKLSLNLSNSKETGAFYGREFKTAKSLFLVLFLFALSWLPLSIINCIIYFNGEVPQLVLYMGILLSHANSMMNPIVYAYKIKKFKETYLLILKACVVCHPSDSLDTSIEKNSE

[5] = target: T3, recombinant canine A3 adenosine receptors (Canis lupus familiaris, UniProt Q28309); experiment: Radioligand competition binding, canine A3 receptor (R-PIA), transfected HEK 293 membranes; settings: mean ± SEM, n = 3
T3 construct: expressed in transfected cells
T3 sequence (Q28309 1-314): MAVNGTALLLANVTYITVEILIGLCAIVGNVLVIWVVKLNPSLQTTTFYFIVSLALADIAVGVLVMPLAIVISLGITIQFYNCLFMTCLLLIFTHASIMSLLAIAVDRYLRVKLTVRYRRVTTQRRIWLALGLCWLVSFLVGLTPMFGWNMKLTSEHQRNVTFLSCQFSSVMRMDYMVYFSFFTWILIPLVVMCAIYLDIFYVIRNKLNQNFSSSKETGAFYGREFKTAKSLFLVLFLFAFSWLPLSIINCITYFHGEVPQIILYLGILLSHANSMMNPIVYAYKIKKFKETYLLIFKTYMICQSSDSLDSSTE
Procedure: as §1, with “Md.). The-filters were rinsed three times with 3-4 mL ice-cold 10 mM Tris-HCl, pH 7.4 and 5 mM magnesium chloride (MgCl2) at 4° C., and were counted in a Wallac β-counter (Perkin Elmer, Boston, Mass.).” for “Md.).”

[6] = target: T4, recombinant canine A2a adenosine receptors (Canis lupus familiaris, UniProt P11617); experiment: Radioligand competition binding, canine A2a receptor (3H-ZM 241385), transfected HEK 293 membranes
T4 construct: expressed in transfected cells
T4 sequence (P11617 whole entry): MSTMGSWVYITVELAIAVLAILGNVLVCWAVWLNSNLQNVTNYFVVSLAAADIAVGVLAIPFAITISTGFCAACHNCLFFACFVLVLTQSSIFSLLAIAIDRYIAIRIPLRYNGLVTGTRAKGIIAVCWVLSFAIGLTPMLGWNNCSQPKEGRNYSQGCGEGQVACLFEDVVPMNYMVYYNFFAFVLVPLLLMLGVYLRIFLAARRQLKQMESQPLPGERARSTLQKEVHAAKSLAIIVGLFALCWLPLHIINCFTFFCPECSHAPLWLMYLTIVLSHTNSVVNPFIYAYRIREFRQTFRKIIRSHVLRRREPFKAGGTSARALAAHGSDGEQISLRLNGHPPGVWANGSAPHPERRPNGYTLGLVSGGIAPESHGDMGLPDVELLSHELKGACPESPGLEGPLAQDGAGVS
Procedure: Membranes (40-70 μg membrane protein), radioligands, and varying concentrations of competing ligands were incubated in triplicate in 0.1 ml buffer HE plus 2 units/mL adenosine deaminase for 2.5 hours at 21° C. […] Nonspecific binding was measured in the presence of 10 μM 5′N ethylcarboxamidoadenosine (NECA, from RBI-Sigma, Natick, Mass.) for A1 and A2b receptors, or 10 μM xanthine amino congener (XAC, from RBI-Sigma, Natick, Mass.) for A2a receptors. Binding assays were terminated by filtration over Whatman GF/C glass fiber filters using a BRANDEL cell harvester (Gaithersburg, Md.).

[7] = test system: open-chest, barbital-anesthetized dogs; experiment: Protocol II (preconditioning): four 5-minute occlusion/reperfusion cycles before 60-minute occlusion and 3 hours reperfusion in dogs; format: in vivo, dog; settings: for Effect on the protective effects of ischemic preconditioning: 1 mg/kg i.v. bolus + 10 μg/kg/min
Procedure: Preconditioning was elicited by four 5-minute occlusion/5-minute reperfusion cycles produced 10 minutes before the 60-minute occlusion.

Structure (SMILES)	Infarct size expressed as a percentage of the risk region, in words [1]	Relationship between infarct size and transmural collateral blood flow compared to control group [2]	Ki ([3]; canine, mean ± SEM, n = 3, 3H-CPX, read-out: Ki, A1) [µM]	inhibition at 10 µM [4] [%]	Ki [5] [µM]	Ki ([6]; canine, mean ± SEM, n = 3, 3H-ZM 241385, read-out: Ki, A2a) [µM]	Effect on the protective effects of ischemic preconditioning ([7]; Protocol II)	Infarct size expressed as a percentage of the entire left ventricle, in words [1]	Relationship between infarct size and collateral blood flow compared to control group [1]	Reduction in infarct size (percentage of the risk region) ([1]; 1 mg/kg i.v. bolus + 10 μg/kg/min for one hour from 10 minutes before release of occlusion) [%]	Infarct size (percentage of risk region or of left ventricle) compared with control, in words ([2]; 1 mg/kg i.v. bolus + 10 μg/kg/min from 10 minutes before occlusion)	Infarct size reduction ([2]; 1 mg/kg i.v. bolus + 10 μg/kg/min from 10 minutes before occlusion, vs control) [%]	Ki [3] [µM]	Ki [6] [µM]	Addition to the protective effect of ischemic preconditioning ([7]; Protocol II)	Relationship between infarct size and collateral blood flow compared to preconditioned control ([7]; Protocol II (preconditioning))
CCCn1c(=O)c2[nH]c([C@H]3C[C@@H]4C[C@H]3[C@H]3O[C@@H]43)nc2n(CCC)c1=O [BG 9719, 8-(2S-5,6-exo-epoxy-endo-norborn-2-yl)-1,3-dipropyl-3,7-dihydro-purine-2,6-dione]	no protective effect	similar	0.0358 ± 0.004	40.6	19.1	2.82	did not block									
CCCn1c(=O)c2[nH]c(C3CCCC3)nc2n(CCC)c1=O [CPX, 8-Cyclopentyl-1,3-dipropyl-3,7-dihydro-purine-2,6-dione]	reduced significantly	shifted downward			1.96		did not block	a significant reduction in infarct size was not observed	shifted downward	42	significantly smaller	51	0.0181 ± 0.0044	0.162 ± 0.022	added to the protective effect	shifted downward further
